Common to all, as to format: biochemical
In one assay the target is T1, pyruvate kinase (Cdc19) (Saccharomyces cerevisiae, UniProt P00549).
T1 sequence (P00549 2-500): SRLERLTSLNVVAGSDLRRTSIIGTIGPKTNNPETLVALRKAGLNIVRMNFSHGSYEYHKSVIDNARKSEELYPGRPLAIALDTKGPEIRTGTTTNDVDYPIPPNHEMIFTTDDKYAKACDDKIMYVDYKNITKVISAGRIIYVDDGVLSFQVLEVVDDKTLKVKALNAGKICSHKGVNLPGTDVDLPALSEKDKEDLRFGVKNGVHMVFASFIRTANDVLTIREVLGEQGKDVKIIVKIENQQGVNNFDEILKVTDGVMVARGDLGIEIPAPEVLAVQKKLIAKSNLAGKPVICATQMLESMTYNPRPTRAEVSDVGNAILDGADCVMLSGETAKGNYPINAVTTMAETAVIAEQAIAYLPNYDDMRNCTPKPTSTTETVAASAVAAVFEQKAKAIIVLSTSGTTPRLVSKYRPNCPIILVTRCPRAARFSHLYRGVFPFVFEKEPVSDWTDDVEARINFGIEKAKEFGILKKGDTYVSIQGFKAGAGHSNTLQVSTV

The target of assay [1] is ornithine transcarbamylase (Arg3) (Saccharomyces cerevisiae, UniProt P05150).
The target in assay [2] is T2, pyruvate decarboxylase (Pdc1) (Saccharomyces cerevisiae, UniProt P06169).
T2 sequence (P06169 2-563): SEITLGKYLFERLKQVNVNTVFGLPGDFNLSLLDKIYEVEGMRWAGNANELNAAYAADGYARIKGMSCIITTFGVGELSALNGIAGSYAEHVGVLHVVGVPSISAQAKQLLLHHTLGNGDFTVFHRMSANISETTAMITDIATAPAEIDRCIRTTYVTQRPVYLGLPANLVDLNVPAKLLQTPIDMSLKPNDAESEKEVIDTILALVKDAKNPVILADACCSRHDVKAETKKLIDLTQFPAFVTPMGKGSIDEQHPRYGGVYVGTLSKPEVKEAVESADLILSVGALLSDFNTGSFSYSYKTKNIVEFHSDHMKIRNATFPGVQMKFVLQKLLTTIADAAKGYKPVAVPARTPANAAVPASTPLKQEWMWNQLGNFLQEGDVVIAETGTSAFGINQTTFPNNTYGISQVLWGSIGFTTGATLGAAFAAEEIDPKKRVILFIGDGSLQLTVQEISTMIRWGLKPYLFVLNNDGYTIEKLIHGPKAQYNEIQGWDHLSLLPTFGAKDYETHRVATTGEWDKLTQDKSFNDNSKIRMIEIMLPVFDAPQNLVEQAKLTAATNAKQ
As to the kind of experiment: ADH/NADH-coupled spectrophotometric assay, 1H-NMR confirmation.

Chain of ornithine transcarbamylase (Arg3) (P05150 2-338): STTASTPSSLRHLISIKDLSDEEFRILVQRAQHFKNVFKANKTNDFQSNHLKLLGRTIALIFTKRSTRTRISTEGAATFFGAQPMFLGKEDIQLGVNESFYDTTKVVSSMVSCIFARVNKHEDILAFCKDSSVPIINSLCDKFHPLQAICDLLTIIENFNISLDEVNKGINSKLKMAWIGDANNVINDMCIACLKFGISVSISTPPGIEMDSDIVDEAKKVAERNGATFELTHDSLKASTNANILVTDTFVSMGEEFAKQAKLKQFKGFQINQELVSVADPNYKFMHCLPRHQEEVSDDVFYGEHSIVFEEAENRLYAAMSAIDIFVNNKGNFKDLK

In turn, `O=C(O)CC(O)(CC(=O)O)C(=O)O` [citrate] registered an inhibition constant (Ki) at pyruvate kinase (Cdc19) of around 5 mM.

As for `C[C@H](N)C(=O)O` [alanine], in assay [1], affinity was put at a Ki of 15 mM.

In the case of `O=C(O)C(=O)Cc1ccccc1` [phenylpyruvate], the Ki in assay [2] is 1 to 4 mM.
